In patent US8361487B1, “Ant controllers and method for application thereof” (BASF Aktiengesellschaft, priority 1999, dated 2013):

The compounds below were run on Coptotermes formosanus Shiraki (assay: Test Example 1: termite-killing test on treated filter paper). Settings: mortality class; 1 ml of a 500 ppm solution on filter paper, seven days after inoculation, triplicate group of 10 insects.
Format: in vivo
Protocol: A filter paper was spread in a glass dish having a diameter of 9 cm, onto which was dropped 1 ml of a 500 ppm solution of the ant controller of the present invention. Then, the filter paper was inoculated with Coptotermes formosanus Shiraki. Seven days after the inoculation, percentage of dead insects was investigated, from which mortality was calculated. The test was carried out with triplicate group of 10 insects.

SMILES | Termite-killing effect
N#Cc1ccc(CC(=NNC(=O)Nc2ccc(OC(F)(F)F)cc2)c2cccc(C(F)(F)F)c2)cc1 [Compound 44] | C (89-80)
N#Cc1ccc(CC(NNC(=O)Nc2ccc(OC(F)(F)F)cc2)c2cccc(C(F)(F)F)c2)cc1 (stereo not drawn) [Compound 96] | A (100)
N#Cc1ccc(CN(NCC(=O)Nc2ccc(Cl)cc2)c2cccc(Cl)c2)cc1 [Compound 151] | C (89-80)
N#Cc1ccc(CN(NCC(=O)Nc2ccc(OC(F)(F)F)cc2)c2cccc(Cl)c2)cc1 [Compound 152] | B (99-90)
N#Cc1ccc(CN(NCC(=O)Nc2ccc(Cl)cc2)c2cccc(F)c2)cc1 [Compound 153] | A (100)
N#Cc1ccc(CN(NCC(=O)Nc2ccc(OC(F)(F)F)cc2)c2cccc(F)c2)cc1 [Compound 154] | B (99-90)
Cc1cccc(N(Cc2ccc(C#N)cc2)NCC(=O)Nc2ccc(Cl)cc2)c1 [Compound 155] | A (100)
Cc1cccc(N(Cc2ccc(C#N)cc2)NCC(=O)Nc2ccc(OC(F)(F)F)cc2)c1 [Compound 156] | B (99-90)
N#Cc1ccc(CN(NCC(=O)Nc2ccc(Cl)cc2)c2cccc(C(F)(F)F)c2)cc1 [Compound 157] | A (100)
N#Cc1ccc(CN(NCC(=O)Nc2ccc(OC(F)(F)F)cc2)c2cccc(C(F)(F)F)c2)cc1 [Compound 158] | C (89-80)

These compounds were tested on fireant (Solenopsis geminata) (assay: Test Example 2: drench treatment of fireant nests). Settings: 1 g of the active ingredient per one nest, 14 days after the treatment.
Format: in vivo
Design: key: A: Nest is completely destructed or activity of the nest is extremely low.; B: Activity of the nest is exhibited.; C: High activity of the nest is exhibited.; D: Activity of the nest is extremely high
Protocol: The ant controller of the present invention was applied to nests (anthill) of fireant (Solenopsis geminata) with drench treatment, in terms of 1 g of the active ingredient per one nest. 14 Days after the treatment of the ant controller, the activity of the nests was evaluated according to the following criterion. The test was carried out with one block per one nest.

SMILES | activity of the nests (effect)
N#Cc1ccc(CC(=NNC(=O)Nc2ccc(OC(F)(F)F)cc2)c2cccc(C(F)(F)F)c2)cc1 [Compound 44] | A
N#Cc1ccc(CC(NNC(=O)Nc2ccc(OC(F)(F)F)cc2)c2cccc(C(F)(F)F)c2)cc1 (stereo not drawn) [Compound 96] | A
